According to US20100292214A1, “Compounds with Antiparasitic Activity, Applications thereof to the Treatment of Infectious Diseases Caused by Apicomplexans” (commissariat a l'Energie Atomique, priority 2007, published 2010):
Where a name gives a salt, the structure may show the parent alone.

Test system: asynchronous 3D7 chloroquine-sensitive P. falciparum infected red blood cells
Assay: Labeled hypoxanthine incorporation assay (in vitro anti-malarial activity)
Type: cell-based
Conditions: Plasmodium falciparum, 3D7, Erythrocyte, 3D7 chloroquine-sensitive strain, infected RBC, 48 h contact, [3H]-hypoxanthine incorporation; two independent experiments in duplicates; read-out: IC50 assessed on Plasmodium Falciparum

Compared with `C[C@@H](COC(=O)N1CCC(n2c(=O)[nH]c3ccccc32)CC1)N(Cc1ccccc1)Cc1ccccc1` [Compound 25, (S)-2-(dibenzylamino)propyl 4-(1,2-dihydro-2-oxobenzo[d]imidazol-3-yl)piperidine-1-carboxylate], `C[C@@H](COC(=S)N1CCC(n2c(=O)[nH]c3ccccc32)CC1)N(Cc1ccccc1)Cc1ccccc1` [Compound 48, O—(S)-2-(dibenzylamino)propyl 4-(1,2-dihydro-2-oxobenzo[d]imidazol-3-yl)piperidine-1-carbothioate] is 1.7-fold lower in IC50: 4.9 µM for the first, 2.95 µM for the second. The second is the more potent here.

Compared with `C[C@@H](COC(=O)N1CCC(N(c2ccccc2)S(=O)(=O)c2cccc(C(F)(F)F)c2)CC1)N(Cc1ccccc1)Cc1ccccc1` [Compound 169, (S)-2-(dibenzylamino)propyl 4-(N-phenyl-3-(trifluoromethyl)phenylsulfonamido)piperidine-1-carboxylate], `C[C@@H](COC(=O)N1CCC(n2c(=O)[nH]c3ccccc32)CC1)N(Cc1ccccc1)Cc1cccc(Oc2ccccc2)c1` [Compound 127, (S)-2-(benzyl(3-phenoxybenzyl)amino)propyl 4-(2-oxo-2,3-dihydro-1H-benzo[d]imidazol-1-yl)piperidine-1-carboxylate hydrochloride] is 4.8-fold higher in IC50: 0.553 µM for the first, 2.67 µM for the second. The first is the more potent here.

`C[C@@H](COC(=O)N1CCC(n2c(=O)[nH]c3ccccc32)CC1)N(CCCc1ccccc1)Cc1ccccc1` [Compound 125, (S)-2-(benzyl(3-phenylpropyl)amino)propyl 4-(2-oxo-2,3-dihydro-1H-benzo[d]imidazol-1-yl)piperidine-1-carboxylate hydrochloride] and `CC(C)[C@@H](COC(=O)N1CCC(n2c(=O)[nH]c3ccccc32)CC1)N(Cc1ccccc1)Cc1ccccc1` [Compound 107, (S)-2-(dibenzylamino)-3-methylbutyl 4-(1,2-dihydro-2-oxobenzo[d]imidazol-3-yl)piperidine-1-carboxylate] are within 1.5-fold of each other in IC50: 4.2 µM for the first, 2.81 µM for the second.

First: O=c1[nH]c2ccccc2n1C1CCN(C(=S)OCCN(Cc2ccccc2)Cc2ccccc2)CC1 [Compound 46, O-2-(dibenzylamino)ethyl 4-(1,2-dihydro-2-oxobenzo[d]imidazol-3-yl)piperidine-1-carbothioate]
Second: O=C(OCCCN(CCOCc1ccccc1)Cc1ccccc1)N1CCC(n2c(=O)[nH]c3ccccc32)CC1 [Compound 143, 3-(benzyl(2-(benzyloxy)ethyl)amino)propyl 4-(2-oxo-2,3-dihydro-1H-benzo[d]imidazol-1-yl)piperidine-1-carboxylate hydrochloride]
The IC50 of the first is 1.5-fold lower: 2.84 µM for the first, 4.27 µM for the second. The first is the more potent here.

Compared with `O=c1[nH]c2ccccc2n1C1CCN(C[C@H](Cc2ccccc2)N(Cc2ccccc2)Cc2ccccc2)CC1` [Compound 51, 1-(1-((S)-2-(dibenzylamino)-3-phenylpropyl)piperidin-4-yl)-1H-benzo[d]imidazol-2(3H)-one], `O=C(OCCN(Cc1ccccc1)Cc1cccc2ccccc12)N1CCC(n2c(=O)[nH]c3ccccc32)CC1` [Compound 130, 2-(benzyl(naphthalen-1-ylmethyl)amino)ethyl 4-(2-oxo-2,3-dihydro-1H-benzo[d]imidazol-1-yl)piperidine-1-carboxylate hydrochloride] is 1.8-fold higher in IC50: 2.11 µM for the first, 3.87 µM for the second.

`C[C@@H](COC(=O)N1CCC(n2c(=O)[nH]c3ccccc32)CC1)N(Cc1ccccc1)Cc1ccco1` [Compound 102, (S)-2-(benzyl(furan-2-ylmethyl)amino)propyl 4-(2-oxo-2,3-dihydro-1H-benzo[d]imidazol-1-yl)piperidine-1-carboxylate] gave an IC50 of 7.47 µM.

Test system: Toxoplasma gondii RH-β1 strain
Assay: microbe, parasite or virus in culture
Type: cell-based
Conditions: Toxoplasma gondii, read-out: IC50 assessed on Toxoplama Gondii

Compared with `C[C@@H](COC(=O)N1CCC(n2c(=O)[nH]c3ccccc32)CC1)N(Cc1ccccc1)Cc1ccccc1` [Compound 25, (S)-2-(dibenzylamino)propyl 4-(1,2-dihydro-2-oxobenzo[d]imidazol-3-yl)piperidine-1-carboxylate], `C[C@@H](COC(=S)N1CCC(n2c(=O)[nH]c3ccccc32)CC1)N(Cc1ccccc1)Cc1ccccc1` [Compound 48, O—(S)-2-(dibenzylamino)propyl 4-(1,2-dihydro-2-oxobenzo[d]imidazol-3-yl)piperidine-1-carbothioate] is 12-fold lower in IC50: 14 µM for the first, 1.18 µM for the second.

`C[C@@H](COC(=O)N1CCC(N(c2ccccc2)S(=O)(=O)c2cccc(C(F)(F)F)c2)CC1)N(Cc1ccccc1)Cc1ccccc1` [Compound 169, (S)-2-(dibenzylamino)propyl 4-(N-phenyl-3-(trifluoromethyl)phenylsulfonamido)piperidine-1-carboxylate] and `O=C(OC[C@H](Cc1ccccc1)N(Cc1ccccc1)Cc1ccccc1)N1CCC(N(c2ccccc2)S(=O)(=O)c2ccc(C(F)(F)F)cc2)CC1` [Compound 183, (S)-2-(dibenzylamino)-3-phenylpropyl 4-(N-phenyl-4-(trifluoromethyl)phenylsulfonamido)piperidine-1-carboxylate] are within 1.5-fold of each other in IC50: 3.2 µM for the first, 3.1 µM for the second.

Compared with `C[C@@H](COC(=O)N1CCC(n2c(=O)[nH]c3ccccc32)CC1)N(CCCc1ccccc1)Cc1ccccc1` [Compound 125, (S)-2-(benzyl(3-phenylpropyl)amino)propyl 4-(2-oxo-2,3-dihydro-1H-benzo[d]imidazol-1-yl)piperidine-1-carboxylate hydrochloride], `O=C(OCC(Cc1ccccc1)NCc1ccccc1)N1CCC(n2c(=O)[nH]c3ccccc32)CC1` (centres unmarked) [Compound 190, 2-(benzylamino)-3-phenylpropyl 4-(2-oxo-2,3-dihydro-1H-benzo[d]imidazol-1-yl)piperidine-1-carboxylate] is 5-fold lower in IC50: 4 µM for the first, 0.8 µM for the second.

Going from `O=c1[nH]c2ccccc2n1C1CCN(C(=S)OCCN(Cc2ccccc2)Cc2ccccc2)CC1` [Compound 46, O-2-(dibenzylamino)ethyl 4-(1,2-dihydro-2-oxobenzo[d]imidazol-3-yl)piperidine-1-carbothioate] to `O=C(OCCCCCCN(Cc1ccccc1)Cc1ccccc1)N1CCC(n2c(=O)[nH]c3ccccc32)CC1` [Compound 180, 6-(dibenzylamino)hexyl 4-(1,2-dihydro-2-oxobenzo[d]imidazol-3-yl)piperidine-1-carboxylate], the IC50 rises from 0.181 µM to 2 µM (11-fold).

First: O=c1[nH]c2ccccc2n1C1CCN(C[C@H](Cc2ccccc2)N(Cc2ccccc2)Cc2ccccc2)CC1 [Compound 51, 1-(1-((S)-2-(dibenzylamino)-3-phenylpropyl)piperidin-4-yl)-1H-benzo[d]imidazol-2(3H)-one]
Second: O=C(Oc1ccc(N(Cc2ccccc2)Cc2ccccc2)cc1)N1CCC(n2c(=O)[nH]c3ccccc32)CC1 [Compound 178, 4-(dibenzylamino)phenyl 4-(1,2-dihydro-2-oxobenzo[d]imidazol-3-yl)piperidine-1-carboxylate]
The IC50 of the first is 3.1-fold higher: 4 µM for the first, 1.3 µM for the second.

`CC(C)(C)OC(=O)N(CCOC(=O)N1CCC(n2c(=O)[nH]c3ccccc32)CC1)Cc1ccccc1` [Compound 185, 2-(benzyl(tert-butoxycarbonyl)amino)ethyl 4-(2-oxo-2,3-dihydro-1H-benzo[d]imidazol-1-yl)piperidine-1-carboxylate] and `CN(CCOC(=O)N1CCC(n2c(=O)[nH]c3ccccc32)CC1)Cc1ccccc1` [Compound 27, 2-(N-benzyl-N-methylamino)ethyl 4-(1,2-dihydro-2-oxobenzo[d]imidazol-3-yl)piperidine-1-carboxylate] are the same in IC50: 2 µM for the first, 2 µM for the second.

`C[C@@H](COC(=O)N1CCC(n2c(=O)[nH]c3ccccc32)CC1)N(Cc1ccccc1)Cc1ccc(F)cc1` [Compound 184, (S)-2-(benzyl(4-fluorobenzyl)amino)propyl 4-(2-oxo-2,3-dihydro-1H-benzo[d]imidazol-1-yl)piperidine-1-carboxylate hydrochloride] and `COC(=O)c1ccc(CN(CCOC(=O)N2CCC(n3c(=O)[nH]c4ccccc43)CC2)Cc2ccccc2)cc1` [Compound 187, 2-(benzyl(4-(methoxycarbonyl)benzyl)amino)ethyl 4-(2-oxo-2,3-dihydro-1H-benzo[d]imidazol-1-yl)piperidine-1-carboxylate] are within 1.5-fold of each other in IC50: 3.3 µM for the first, 2.2 µM for the second.

First: O=C(OCCCN(Cc1ccccc1)Cc1cccc(OCc2ccccc2)c1)N1CCC(n2c(=O)[nH]c3ccccc32)CC1 [Compound 188, 3-(benzyl(3-(benzyloxy)benzyl)amino)propyl 4-(2-oxo-2,3-dihydro-1H-benzo[d]imidazol-1-yl)piperidine-1-carboxylate]
Second: Cn1c(CN(CCCOC(=O)N2CCC(n3c(=O)[nH]c4ccccc43)CC2)Cc2ccccc2)cc2ccccc21 [Compound 186, 3-(benzyl((1-methyl-1H-indol-2-yl)methyl)amino)propyl 4-(2-oxo-2,3-dihydro-1H-benzo[d]imidazol-1-yl)piperidine-1-carboxylate hydrochloride]
The IC50 of the first is 1.6-fold lower: 3 µM for the first, 4.8 µM for the second.

First: CC(C)C[C@@H](COC(=O)N1CCC(n2c(=O)[nH]c3ccccc32)CC1)NCc1ccccc1 [Compound 189, (S)-2-(benzylamino)-4-methylpentyl 4-(2-oxo-2,3-dihydro-1H-benzo[d]imidazol-1-yl)piperidine-1-carboxylate]
Second: O=C(OCc1ccccc1)N1CCC(n2c(=O)[nH]c3ccccc32)CC1 [Compound 181, Benzyl 4-(1,2-dihydro-2-oxobenzo[d]imidazol-3-yl)piperidine-1-carboxylate]
The IC50 of the first is 7.7-fold higher: 2.3 µM for the first, 0.3 µM for the second. The second is the more potent here.

First: O=C(OCCOCc1ccccc1)N1CCC(n2c(=O)[nH]c3ccccc32)CC1 [Compound 31, 2-(benzyloxy)ethyl 4-(1,2-dihydro-2-oxobenzo[d]imidazol-3-yl)piperidine-1-carboxylate]
Second: O=C(OCC1CCCCN1Cc1ccccc1)N1CCC(n2c(=O)[nH]c3ccccc32)CC1 (centres unmarked) [Compound 182, (1-benzylpiperidin-2-yl)methyl 4-(1,2-dihydro-2-oxobenzo[d]imidazol-3-yl)piperidine-1-carboxylate]
The IC50 of the first is 10-fold lower: 0.5 µM for the first, 5 µM for the second. The first is the more potent here.

Going from `O=C(OC1CCCN(Cc2ccccc2)C1)N1CCC(n2c(=O)[nH]c3ccccc32)CC1` (centres unmarked) [Compound 33, 1-benzylpiperidin-3-yl 4-(1,2-dihydro-2-oxobenzo[d]imidazol-3-yl)piperidine-1-carboxylate] to `CN(C)CCOC(=O)N1CCC(n2c(=O)[nH]c3ccccc32)CC1` [Compound 35, 2-(dimethylamino)ethyl 4-(1,2-dihydro-2-oxobenzo[d]imidazol-3-yl)piperidine-1-carboxylate], the IC50 rises from 0.45 µM to 4 µM (8.9-fold). The first is the more potent here.

`C[C@@H](COC(=O)N1CCC(n2c(=O)n(C(=O)C(C)(C)C)c3ccccc32)CC1)N(Cc1ccccc1)Cc1ccccc1` [Compound 66, (S)-2-(dibenzylamino)propyl 4-(1,2-dihydro-2-oxo-1-(pivaloyl)benzo[d]imidazol-3-yl)piperidine-1-carboxylate] and `C[C@@H](COC(=O)N1CCC(n2c(N)nc3ccccc32)CC1)N(Cc1ccccc1)Cc1ccccc1` [Compound 177, (S)-2-(dibenzylamino)propyl 4-(2-amino-1H-benzo[d]imidazol-1-yl)piperidine-1-carboxylate] are within 1.5-fold of each other in IC50: 2.8 µM for the first, 3.8 µM for the second.

First: CC(C)N(CCOC(=O)N1CCC(n2c(=O)[nH]c3ccccc32)CC1)C(C)C [Compound 34, 2-(diisopropylamino)ethyl 4-(1,2-dihydro-2-oxobenzo[d]imidazol-3-yl)piperidine-1-carboxylate]
Second: CCN(CC)CCOC(=O)N1CCC(n2c(=O)[nH]c3ccccc32)CC1 [Compound 39, 2-(diethylamino)ethyl 4-(1,2-dihydro-2-oxobenzo[d]imidazol-3-yl)piperidine-1-carboxylate]
The IC50 of the first is 2.2-fold higher: 27 µM for the first, 12 µM for the second. The second is the more potent here.

For `C[C@@H](COC(=O)N1CCC(c2cccc3[nH]c(=O)[nH]c23)CC1)N(Cc1ccccc1)Cc1ccccc1` [Compound 179, (S)-2-(dibenzylamino)propyl 4-(2-oxo-2,3-dihydro-1H-benzo[d]imidazol-4-yl)piperidine-1-carboxylate], the IC50 was 3.25 µM.
